Reference: ChEMBL document CHEMBL1201862, “PubChem BioAssay data set” (2004)
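Exposure lasted 48 hours, with cells grown in 96-well plates and compounds tested at five concentrations. GI50 marks 50% less growth.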 The source made the active and inactive calls. No stated cut-off is given here; in the data, active = GI50 up to about 1.1 µM and inactive = higher.

Tests used:
Assay in all cases: NCI tumour cell line growth inhibition, 48 h
786-0 = system: 786-0
A498 = system: A498
A549 = system: A549
ACHN = system: ACHN
CAKI-1 = system: CAKI-1
IGROV-1 = system: IGROV-1
KM-20L2 = system: KM-20L2
M14 = system: M14
NCI-H226 = system: NCI-H226
NCI-H23 = system: NCI-H23
RPMI-8226 = system: RPMI-8226
SK-MEL-2 = system: SK-MEL-2
SK-MEL-5 = system: SK-MEL-5
SNB-19 = system: SNB-19
TK-10 = system: TK-10
UO-31 = system: UO-31
SNB-75 = system: SNB-75
MDA-MB-435 = system: MDA-MB-435
T47D = system: T47D

Row | Structure (SMILES) | GI50 (786-0) | GI50 (A498) | GI50 (A549) | GI50 (ACHN) | GI50 (CAKI-1) | GI50 (IGROV-1) | GI50 (KM-20L2) | GI50 (M14) | GI50 (NCI-H226) | GI50 (NCI-H23) | GI50 (RPMI-8226) | GI50 (SK-MEL-2) | GI50 (SK-MEL-5) | GI50 (SNB-19) | GI50 (TK-10) | GI50 (UO-31) | GI50 (SNB-75) | GI50 (MDA-MB-435) | GI50 (T47D)
1 | CC(=O)CC(=O)/C=C/c1cccs1 | 99.5 µM (inactive) | 64.9 µM (inactive) | > 100 µM (inactive) | 97.3 µM (inactive) | > 100 µM (inactive) | > 100 µM (inactive) | 98.6 µM (inactive) | 54.2 µM (inactive) | > 100 µM (inactive) | > 100 µM (inactive) | 34.6 µM (inactive) | > 100 µM (inactive) | 37.1 µM (inactive) | > 100 µM (inactive) | > 100 µM (inactive) | 93.3 µM (inactive) |  |  | 
2 | C1CCC(N=C2N(C3CCCCC3)C(=NC3CCCCC3)N2C2CCCCC2)CC1 | > 100 µM (inactive) | > 10 µM (inactive) | > 100 µM (inactive) | > 100 µM (inactive) |  | > 100 µM (inactive) | > 100 µM (inactive) | > 100 µM (inactive) |  | > 100 µM (inactive) | > 100 µM (inactive) | > 100 µM (inactive) | > 100 µM (inactive) | > 100 µM (inactive) | > 100 µM (inactive) | > 100 µM (inactive) | 20.9 µM (inactive) |  | 
3 | COc1cc(C(C[N+](=O)[O-])SC(C)=O)ccc1OCc1ccccc1 (stereo not drawn) | 1.79 µM (inactive) | 7.57 µM (inactive) | 9.33 µM (inactive) | 9.55 µM (inactive) | 12 µM (inactive) | 2.88 µM (inactive) |  | 4.89 µM (inactive) | 7.91 µM (inactive) | 4.79 µM (inactive) | 1.39 µM (inactive) | 7.59 µM (inactive) | 9.04 µM (inactive) | 8.24 µM (inactive) | 6.35 µM (inactive) | 4.57 µM (inactive) | 11.4 µM (inactive) | 3.08 µM (inactive) | 20.5 µM (inactive)
4 | Clc1ccc(Cc2nc3cc(CCN4CCN(c5ccccc5)CC4)ccc3[nH]2)cc1 | 6.87 µM (inactive) | 14.4 µM (inactive) | 13.4 µM (inactive) | 19.5 µM (inactive) | 14.4 µM (inactive) | 27.5 µM (inactive) |  | 5.73 µM (inactive) | 22.5 µM (inactive) | 13.8 µM (inactive) | 4.6 µM (inactive) | 15 µM (inactive) | 12.6 µM (inactive) | 20.7 µM (inactive) | 12.8 µM (inactive) | 8.07 µM (inactive) | 12.8 µM (inactive) | 12.9 µM (inactive) | 7.01 µM (inactive)
5 | CC1(C)C(CBr)=[N+]([O-])C(C)(C)N1O | 5.71 µM (inactive) | > 10 µM (inactive) | > 10 µM (inactive) | 3.68 µM (inactive) | 2.56 µM (inactive) | > 6.31 µM (inactive) |  | 2.37 µM (inactive) | > 10 µM (inactive) | 3.59 µM (inactive) | > 5.05 µM (inactive) | > 9.29 µM (inactive) | 4.16 µM (inactive) | > 10 µM (inactive) | 5.5 µM (inactive) | > 10 µM (inactive) | 3.17 µM (inactive) | 4.03 µM (inactive) | 2.16 µM (inactive)
6 | CC(=O)NC(CCCCN(Cc1ccccc1)C(=O)NCCCl)C(=O)NCc1ccccc1 (stereo not drawn) | > 100 µM (inactive) |  | > 100 µM (inactive) | > 100 µM (inactive) | > 100 µM (inactive) | > 100 µM (inactive) | > 100 µM (inactive) | > 100 µM (inactive) | > 100 µM (inactive) | > 100 µM (inactive) | > 100 µM (inactive) | > 100 µM (inactive) |  | > 100 µM (inactive) |  | > 100 µM (inactive) | > 100 µM (inactive) |  | 
7 | COC(=O)[C@@H]1C=CCN1S(=O)(=O)c1ccc(C)cc1 | 32.9 µM (inactive) | > 100 µM (inactive) | > 100 µM (inactive) | > 100 µM (inactive) | 20.2 µM (inactive) | > 100 µM (inactive) |  | 48.1 µM (inactive) | > 100 µM (inactive) | > 100 µM (inactive) | > 100 µM (inactive) | > 100 µM (inactive) | 59.6 µM (inactive) | > 100 µM (inactive) | > 100 µM (inactive) | > 100 µM (inactive) | > 100 µM (inactive) | 13.2 µM (inactive) | > 100 µM (inactive)
8 | CC(C)NC(=O)OCc1c(COC(=O)NC(C)C)c(-c2ccc[n+](COC(=O)C(C)(C)C)c2)n2c1CCC2 | 40.7 µM (inactive) | 32.7 µM (inactive) | 99.1 µM (inactive) | 38.8 µM (inactive) | 27.6 µM (inactive) | > 80.7 µM (inactive) |  | > 84.1 µM (inactive) | > 91 µM (inactive) | 53.1 µM (inactive) | > 100 µM (inactive) | > 73.6 µM (inactive) | > 95.5 µM (inactive) | > 100 µM (inactive) | > 100 µM (inactive) | 64.7 µM (inactive) | > 89.1 µM (inactive) | > 100 µM (inactive) | > 100 µM (inactive)
9 | COC(=O)/C(=N/NC(N)=O)C(C(=O)OC)C(=O)C(=O)Nc1ccc(Cl)cc1 (stereo not drawn) | > 100 µM (inactive) | > 100 µM (inactive) | > 100 µM (inactive) | > 100 µM (inactive) | > 100 µM (inactive) | > 100 µM (inactive) | > 100 µM (inactive) | > 100 µM (inactive) | > 100 µM (inactive) | > 100 µM (inactive) | > 100 µM (inactive) | > 100 µM (inactive) | > 100 µM (inactive) | > 100 µM (inactive) | > 100 µM (inactive) | > 100 µM (inactive) | > 100 µM (inactive) |  | 
10 | COc1cccc2c1CCc1c(-c3ccc(F)cc3)cc(-c3ccc4ccccc4n3)nc1-2 | > 100 µM (inactive) | > 100 µM (inactive) | > 100 µM (inactive) | > 100 µM (inactive) | > 100 µM (inactive) | > 100 µM (inactive) |  | > 100 µM (inactive) | > 100 µM (inactive) | > 100 µM (inactive) | > 100 µM (inactive) | > 100 µM (inactive) | > 100 µM (inactive) | > 100 µM (inactive) | > 100 µM (inactive) | > 100 µM (inactive) | > 100 µM (inactive) | > 100 µM (inactive) | > 100 µM (inactive)
11 | CCCCN(c1ccccc1)c1ncnc2c1cnn2C | 53.3 µM (inactive) | 23.3 µM (inactive) | 51.2 µM (inactive) | 37.7 µM (inactive) | 45.1 µM (inactive) | 34.7 µM (inactive) |  | 48.2 µM (inactive) | > 100 µM (inactive) | 30.1 µM (inactive) | 14.3 µM (inactive) | 27.5 µM (inactive) | > 100 µM (inactive) | 89.9 µM (inactive) | 39.2 µM (inactive) | 40.6 µM (inactive) | 11.7 µM (inactive) | 37.5 µM (inactive) | 20.2 µM (inactive)
12 | Cc1cccc(/C=C2\CCCCCC2=O)c1 | > 100 µM (inactive) | > 100 µM (inactive) | > 100 µM (inactive) | > 100 µM (inactive) | > 100 µM (inactive) | > 100 µM (inactive) |  | > 100 µM (inactive) | > 100 µM (inactive) | > 100 µM (inactive) | 60.5 µM (inactive) | > 100 µM (inactive) | 79.1 µM (inactive) | > 100 µM (inactive) | > 100 µM (inactive) | > 100 µM (inactive) | > 100 µM (inactive) | > 100 µM (inactive) | > 100 µM (inactive)
13 | Fc1cc2nc3n(c2cc1F)C(c1c(F)cccc1F)SC3 (stereo not drawn) | 24.3 µM (inactive) | 29.8 µM (inactive) | 37.1 µM (inactive) | 61 µM (inactive) | 34.3 µM (inactive) | 47.9 µM (inactive) |  | 30.5 µM (inactive) | 52 µM (inactive) | 43.9 µM (inactive) | 34.5 µM (inactive) | 38.2 µM (inactive) | 17.3 µM (inactive) | > 100 µM (inactive) | 45.4 µM (inactive) | 37.8 µM (inactive) | 31.4 µM (inactive) | 35.3 µM (inactive) | 37 µM (inactive)
14 | O=C1N/C(=N\N=C\c2ccccc2)C(c2ccccc2)O1 (stereo not drawn) | 47.9 µM (inactive) | 99.3 µM (inactive) | 45.3 µM (inactive) | 53.5 µM (inactive) | 74.1 µM (inactive) | > 100 µM (inactive) |  | 54 µM (inactive) | 30.9 µM (inactive) | > 100 µM (inactive) | 34.4 µM (inactive) | > 100 µM (inactive) | 66.8 µM (inactive) | > 100 µM (inactive) | 24 µM (inactive) | 15.9 µM (inactive) | < 0.01 µM (active) | > 100 µM (inactive) | 79.8 µM (inactive)
15 | O=C(O)c1cccc(S(=O)(=O)NCCO)c1 | > 100 µM (inactive) | > 100 µM (inactive) | > 100 µM (inactive) | > 100 µM (inactive) | > 100 µM (inactive) | > 100 µM (inactive) |  | > 100 µM (inactive) | > 100 µM (inactive) | > 100 µM (inactive) | > 100 µM (inactive) | > 100 µM (inactive) | > 100 µM (inactive) | > 100 µM (inactive) | > 100 µM (inactive) | > 100 µM (inactive) | > 100 µM (inactive) | > 100 µM (inactive) | > 100 µM (inactive)
16 | CCCCCCCCCCCCC1NC(=N)NC2(CCCO2)C1C(=O)OC (stereo not drawn) | 4.24 µM (inactive) | 23.3 µM (inactive) | 13.1 µM (inactive) | 10.4 µM (inactive) | 12.8 µM (inactive) | 2.3 µM (inactive) |  | 3.33 µM (inactive) | 14.6 µM (inactive) | 4.39 µM (inactive) | 2.61 µM (inactive) | 4.29 µM (inactive) | 5.47 µM (inactive) | 2.76 µM (inactive) | 4.79 µM (inactive) | 15.3 µM (inactive) | 3.61 µM (inactive) | 3.34 µM (inactive) | 6.4 µM (inactive)
